Reference: ChEMBL document CHEMBL1201862, “PubChem BioAssay data set” (2004)
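Exposure lasted 48 hours, with cells grown in 96-well plates and compounds tested at five concentrations. Abbreviation: GI50, concentration required for 50% inhibition of growth.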 The source made the active and inactive calls. Rule as the data show it: active = GI50 up to about 1.1 µM and inactive = higher.

Assays:
Experiment in all cases: inhibition of tumour cell growth, NCI panel, 48 h
[1] = test system: SK-MEL-2
[2] = test system: K562
[3] = test system: OVCAR-4
[4] = test system: U-251
[5] = test system: OVCAR-5
[6] = test system: Malme-3M
[7] = test system: CAKI-1
[8] = test system: SK-MEL-5
[9] = test system: A549
[10] = test system: SK-MEL-28
[11] = test system: CCRF-CEM
[12] = test system: HCT-116
[13] = test system: UACC-257
[14] = test system: SK-OV-3
[15] = test system: M14
[16] = test system: LOX IMVI
[17] = test system: HOP-92
[18] = test system: HCT-15

SMILES	GI50 [1]	GI50 [2]	GI50 [3]	GI50 [4]	GI50 [5]	GI50 [6]	GI50 [7]	GI50 [8]	GI50 [9]	GI50 [10]	GI50 [11]	GI50 [12]	GI50 [13]	GI50 [14]	GI50 [15]	GI50 [16]	GI50 [17]	GI50 [18] [µM]
O=C1C[C@@H]2[C@@H](CCC23CC3)N1	> 100 µM (inactive)	> 100 µM (inactive)	> 100 µM (inactive)	> 100 µM (inactive)	> 100 µM (inactive)	> 100 µM (inactive)	> 100 µM (inactive)	> 100 µM (inactive)	> 100 µM (inactive)	> 100 µM (inactive)	> 100 µM (inactive)	> 100 µM (inactive)	> 100 µM (inactive)	> 100 µM (inactive)	> 100 µM (inactive)	> 100 µM (inactive)	–	–
O=C(CCN1CCCC1)CC(c1ccccc1)c1c(O)c2ccccc2oc1=O (centres undefined)	> 100 µM (inactive)	> 100 µM (inactive)	> 100 µM (inactive)	> 100 µM (inactive)	–	> 100 µM (inactive)	–	> 100 µM (inactive)	> 100 µM (inactive)	> 100 µM (inactive)	> 100 µM (inactive)	> 100 µM (inactive)	> 100 µM (inactive)	> 100 µM (inactive)	> 100 µM (inactive)	> 100 µM (inactive)	20.1 µM (inactive)	> 100
Cn1c(N)nc(=O)c2c1N(C1OC(CO)C(O)C1O)CN2Cc1ccccc1 (centres undefined)	> 100 µM (inactive)	> 100 µM (inactive)	> 100 µM (inactive)	> 100 µM (inactive)	> 100 µM (inactive)	> 100 µM (inactive)	> 100 µM (inactive)	> 100 µM (inactive)	> 100 µM (inactive)	–	–	> 100 µM (inactive)	> 100 µM (inactive)	> 100 µM (inactive)	> 100 µM (inactive)	–	> 100 µM (inactive)	> 100
CC(=O)c1sc(-c2nc(C)c(C(=O)/C=C\c3ccc(/C=C\C(=O)c4sc(-c5nc(C)c(C(C)=O)s5)nc4C)cc3)s2)nc1C	> 100 µM (inactive)	> 100 µM (inactive)	> 100 µM (inactive)	> 100 µM (inactive)	> 100 µM (inactive)	> 100 µM (inactive)	> 100 µM (inactive)	–	> 100 µM (inactive)	> 100 µM (inactive)	80.7 µM (inactive)	> 100 µM (inactive)	> 100 µM (inactive)	> 100 µM (inactive)	> 100 µM (inactive)	> 100 µM (inactive)	–	> 100
COc1ccc(Cc2c(=O)[nH]nc3ccccc23)cc1	> 100 µM (inactive)	> 100 µM (inactive)	> 100 µM (inactive)	–	> 100 µM (inactive)	> 100 µM (inactive)	> 100 µM (inactive)	35.2 µM (inactive)	43.6 µM (inactive)	> 100 µM (inactive)	> 100 µM (inactive)	> 100 µM (inactive)	> 100 µM (inactive)	> 100 µM (inactive)	> 100 µM (inactive)	> 100 µM (inactive)	> 100 µM (inactive)	> 100
[O-][S+]1c2ccccc2N=C(c2cccs2)CC1c1ccccc1O (centres undefined)	> 100 µM (inactive)	> 100 µM (inactive)	> 100 µM (inactive)	–	> 100 µM (inactive)	> 100 µM (inactive)	> 100 µM (inactive)	> 100 µM (inactive)	> 100 µM (inactive)	> 100 µM (inactive)	> 100 µM (inactive)	–	> 100 µM (inactive)	> 100 µM (inactive)	> 100 µM (inactive)	> 100 µM (inactive)	–	> 100
CN(C)CC(C)(C)C(=O)/C=C/c1ccc(/C=C/C(=O)C(C)(C)CN(C)C)cc1	–	0.202 µM (active)	1.02 µM (active)	1.61 µM (inactive)	1.82 µM (inactive)	1.87 µM (inactive)	1.42 µM (inactive)	2.32 µM (inactive)	2.79 µM (inactive)	1.87 µM (inactive)	1.05 µM (active)	1.26 µM (inactive)	2.09 µM (inactive)	2.81 µM (inactive)	1.62 µM (inactive)	0.456 µM (active)	0.682 µM (active)	0.605
Cc1ccc(-c2cc(=O)c3cc(C)c(C)c(C(=O)O)c3o2)cc1[N+](=O)[O-]	> 100 µM (inactive)	> 100 µM (inactive)	> 100 µM (inactive)	> 100 µM (inactive)	> 100 µM (inactive)	> 100 µM (inactive)	> 100 µM (inactive)	> 100 µM (inactive)	> 100 µM (inactive)	> 100 µM (inactive)	> 100 µM (inactive)	> 100 µM (inactive)	> 100 µM (inactive)	> 100 µM (inactive)	> 100 µM (inactive)	> 100 µM (inactive)	–	> 100
O=C(O)CCC(N/C=C1/N=C(c2ccccc2)OC1=O)C(=O)O (centres undefined)	> 100 µM (inactive)	> 100 µM (inactive)	> 100 µM (inactive)	> 100 µM (inactive)	> 100 µM (inactive)	> 100 µM (inactive)	> 100 µM (inactive)	> 100 µM (inactive)	> 100 µM (inactive)	> 100 µM (inactive)	> 100 µM (inactive)	> 100 µM (inactive)	> 100 µM (inactive)	> 100 µM (inactive)	> 100 µM (inactive)	–	–	> 100
Cc1nc2ccc(N)cc2nc1O	> 100 µM (inactive)	> 100 µM (inactive)	> 100 µM (inactive)	> 100 µM (inactive)	> 100 µM (inactive)	> 100 µM (inactive)	> 100 µM (inactive)	> 100 µM (inactive)	> 100 µM (inactive)	–	> 100 µM (inactive)	> 100 µM (inactive)	> 100 µM (inactive)	> 100 µM (inactive)	> 100 µM (inactive)	> 100 µM (inactive)	5.89 µM (inactive)	> 100
O=C(O)OC12CCCCCC1C(=O)C1CCCCC12 (centres undefined)	> 100 µM (inactive)	42 µM (inactive)	> 100 µM (inactive)	> 100 µM (inactive)	–	> 100 µM (inactive)	–	> 100 µM (inactive)	> 100 µM (inactive)	> 100 µM (inactive)	> 100 µM (inactive)	57.4 µM (inactive)	> 100 µM (inactive)	> 100 µM (inactive)	> 100 µM (inactive)	> 100 µM (inactive)	–	78.2
COc1cccc2c1N[S@](=O)S2	> 100 µM (inactive)	46 µM (inactive)	–	39.3 µM (inactive)	–	> 100 µM (inactive)	> 100 µM (inactive)	–	> 100 µM (inactive)	> 100 µM (inactive)	36.7 µM (inactive)	> 100 µM (inactive)	> 100 µM (inactive)	> 100 µM (inactive)	> 100 µM (inactive)	50.8 µM (inactive)	> 100 µM (inactive)	82.4
O=C(NCC(O)CNC(=O)C(F)(F)F)C(F)(F)F	–	> 100 µM (inactive)	> 100 µM (inactive)	> 100 µM (inactive)	> 100 µM (inactive)	> 100 µM (inactive)	> 100 µM (inactive)	> 100 µM (inactive)	> 100 µM (inactive)	–	> 100 µM (inactive)	> 100 µM (inactive)	> 100 µM (inactive)	> 100 µM (inactive)	> 100 µM (inactive)	> 100 µM (inactive)	> 100 µM (inactive)	> 100
CCCCn1c2ccccc2c2ccc3c(c21)C(=O)C=CC3=O	> 100 µM (inactive)	84.3 µM (inactive)	> 100 µM (inactive)	> 100 µM (inactive)	> 100 µM (inactive)	> 100 µM (inactive)	> 100 µM (inactive)	> 100 µM (inactive)	> 100 µM (inactive)	> 100 µM (inactive)	–	> 100 µM (inactive)	> 100 µM (inactive)	> 100 µM (inactive)	> 100 µM (inactive)	> 100 µM (inactive)	> 100 µM (inactive)	> 100
Cc1ccc(N2C(=O)CS/C2=C(\C#N)c2nc3ccccc3[nH]2)cc1	> 100 µM (inactive)	> 100 µM (inactive)	> 100 µM (inactive)	> 100 µM (inactive)	> 100 µM (inactive)	> 100 µM (inactive)	> 100 µM (inactive)	> 100 µM (inactive)	> 100 µM (inactive)	> 100 µM (inactive)	> 100 µM (inactive)	> 100 µM (inactive)	> 100 µM (inactive)	–	> 100 µM (inactive)	> 100 µM (inactive)	> 100 µM (inactive)	> 100
Cc1ccccc1SC(/C=C/NNC1=NN=C(c2ccccc2)C(c2ccccc2)N1)c1ccccc1 (centres undefined)	16.3 µM (inactive)	30.2 µM (inactive)	2.99 µM (inactive)	24.9 µM (inactive)	> 100 µM (inactive)	22.4 µM (inactive)	13.7 µM (inactive)	26.1 µM (inactive)	14.3 µM (inactive)	15.7 µM (inactive)	27.3 µM (inactive)	–	18.6 µM (inactive)	22.4 µM (inactive)	19.1 µM (inactive)	33.8 µM (inactive)	9.57 µM (inactive)	34
CSC(=S)c1ccc(C(=S)SC)cc1	–	> 100 µM (inactive)	> 100 µM (inactive)	> 100 µM (inactive)	> 100 µM (inactive)	> 100 µM (inactive)	> 100 µM (inactive)	> 100 µM (inactive)	> 100 µM (inactive)	–	–	> 100 µM (inactive)	> 100 µM (inactive)	> 100 µM (inactive)	> 100 µM (inactive)	> 100 µM (inactive)	> 100 µM (inactive)	> 100
